PubChem BioAssay AID248 (DTP/NCI, 2004)
Where “and” joins values, the source holds several entries; their conditions need not be identical. Identical values can stand only once. Toxic doses and inconclusive results are not listed. Cut-off read from the data, not from the text of the source: active = T/C of 150% or more; inactive = T/C below 125%.

Tested on: L1210 leukemia ip in BDF1 mice, survival T/C
Assay: NCI In Vivo Anticancer Drug Screen. Data for tumor model L1210 Leukemia (intraperitoneal) in B6D2F1 (BDF1) mice
Details: endpoint: mean survival time, vehicle: water, higher = longer survival
Procedure, shortened: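 Ratio derived from survival: compound-dosed mice over vehicle-dosed mice, all bearing a transplantable tumor.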

Measured: T/C

O=C(NO)c1ccncc1
inactive: dose: 6.25 mg/kg/injection, schedule: Q03HX008 (ip) 96 % of control | dose: 12.5 mg/kg/injection, schedule: Q03HX008 (ip) 100 % of control | dose: 18.75 mg/kg/injection, schedule: Q03HX008 (ip) 95 % of control | dose: 25.0 mg/kg/injection, schedule: Q01DX005 (iv) 100 % of control | dose: 33.0 mg/kg/injection, schedule: Q#B X027 (sc) 98 % of control | dose: 50.0 mg/kg/injection, schedule: Q01DX005 (iv) 100 % of control and 105 % of control | dose: 50.0 mg/kg/injection, schedule: Q01DX009 (sc) 98 % of control | dose: 67.0 mg/kg/injection, schedule: Q#B X027 (ip) 98 % of control | dose: 100.0 mg/kg/injection, schedule: Q01DX005 (iv) 101 % of control and 102 % of control and 105 % of control | dose: 100.0 mg/kg/injection, schedule: Q01DX009 (ip) 94 % of control and 100 % of control | dose: 100.0 mg/kg/injection, schedule: Q01DX009 (sc) 93 % of control and 100 % of control | dose: 100.0 mg/kg/injection, schedule: Q01DX010 (ip) 106 % of control | dose: 125.0 mg/kg/injection, schedule: Q01DX001 (ip) 97 % of control | dose: 133.0 mg/kg/injection, schedule: Q#B X027 (ip) 103 % of control | dose: 134.0 mg/kg/injection, schedule: Q#B X027 (sc) 107 % of control | dose: 200.0 mg/kg/injection, schedule: Q01DX001 (ip) 107 % of control | dose: 200.0 mg/kg/injection, schedule: Q01DX005 (ip) 101 % of control | dose: 200.0 mg/kg/injection, schedule: Q01DX005 (iv) 100 % of control and 101 % of control | dose: 200.0 mg/kg/injection, schedule: Q01DX009 (sc) 96 % of control | dose: 200.0 mg/kg/injection, schedule: Q01DX010 (ip) 107 % of control | dose: 200.0 mg/kg/injection, schedule: Q01DX Z (ip) 117 % of control | dose: 200.0 mg/kg/injection, schedule: Q02DX Z (ip) 114 % of control | dose: 200.0 mg/kg/injection, schedule: Q04DX003 (ip) 103 % of control | dose: 200.0 mg/kg/injection, schedule: Q08DX002 (ip) 103 % of control | dose: 200.0 mg/kg/injection, schedule: Q#A X030 (ip) 98 % of control | dose: 200.0 mg/kg/injection, schedule: Q#B X027 (ip) 122 % of control | dose: 200.0 mg/kg/injection, schedule: Q#B X027 (sc) 98 % of control | dose: 220.0 mg/kg/injection, schedule: Q01DX Z (ip) 111 % of control | dose: 222.0 mg/kg/injection, schedule: Q01DX015 (ip) 104 % of control | dose: 222.0 mg/kg/injection, schedule: Q01DX Z (ip) 105 % of control and 106 % of control and 119 % of control | dose: 225.0 mg/kg/injection, schedule: Q01DX Z (ip) 109 % of control | dose: 250.0 mg/kg/injection, schedule: Q01DX001 (ip) 94 % of control and 108 % of control | dose: 250.0 mg/kg/injection, schedule: Q01DX005 (iv) 97 % of control | dose: 250.0 mg/kg/injection, schedule: Q01DX009 (oral) 96 % of control and 98 % of control | dose: 250.0 mg/kg/injection, schedule: Q01DX009 (sc) 93 % of control | dose: 250.0 mg/kg/injection, schedule: Q01DX015 (iv) 106 % of control | dose: 250.0 mg/kg/injection, schedule: Q03HX024 (ip) 100 % of control | dose: 267.0 mg/kg/injection, schedule: Q#B X027 (sc) 97 % of control | dose: 270.0 mg/kg/injection, schedule: Q01DX015 (ip) 121 % of control | dose: 300.0 mg/kg/injection, schedule: Q01DX015 (im) 93 % of control | dose: 300.0 mg/kg/injection, schedule: Q01DX Z (ip) 112 % of control | dose: 300.0 mg/kg/injection, schedule: Q02DX Z (ip) 112 % of control | dose: 300.0 mg/kg/injection, schedule: Q#A X030 (ip) 98 % of control | dose: 333.0 mg/kg/injection, schedule: Q01DX015 (ip) 119 % of control | dose: 333.0 mg/kg/injection, schedule: Q01DX Z (ip) 120 % of control | dose: 335.0 mg/kg/injection, schedule: Q01DX Z (ip) 97 % of control and 116 % of control | dose: 400.0 mg/kg/injection, schedule: Q01DX001 (ip) 100 % of control | dose: 400.0 mg/kg/injection, schedule: Q01DX005 (iv) 103 % of control | dose: 400.0 mg/kg/injection, schedule: Q01DX009 (sc) 100 % of control | dose: 400.0 mg/kg/injection, schedule: Q01DX015 (ip) 111 % of control | dose: 400.0 mg/kg/injection, schedule: Q01DX015 (sc) 104 % of control | dose: 400.0 mg/kg/injection, schedule: Q04DX003 (ip) 114 % of control | dose: 400.0 mg/kg/injection, schedule: Q08DX002 (ip) 105 % of control | dose: 500.0 mg/kg/injection, schedule: Q01DX001 (ip) 111 % of control and 113 % of control | dose: 500.0 mg/kg/injection, schedule: Q01DX005 (iv) 100 % of control | dose: 500.0 mg/kg/injection, schedule: Q01DX009 (oral) 93 % of control and 105 % of control | dose: 500.0 mg/kg/injection, schedule: Q01DX009 (sc) 94 % of control and 100 % of control | dose: 500.0 mg/kg/injection, schedule: Q01DX015 (im) 104 % of control | dose: 500.0 mg/kg/injection, schedule: Q01DX015 (ip) 121 % of control | dose: 500.0 mg/kg/injection, schedule: Q01DX015 (oral) 97 % of control | dose: 500.0 mg/kg/injection, schedule: Q03HX024 (ip) 98 % of control | dose: 600.0 mg/kg/injection, schedule: Q01DX001 (ip) 105 % of control | dose: 600.0 mg/kg/injection, schedule: Q01DX005 (ip) 101 % of control | dose: 600.0 mg/kg/injection, schedule: Q01DX005 (iv) 103 % of control | dose: 600.0 mg/kg/injection, schedule: Q01DX015 (sc) 98 % of control | dose: 600.0 mg/kg/injection, schedule: Q02DX Z (ip) 123 % of control | dose: 600.0 mg/kg/injection, schedule: Q03DX005 (ip) 108 % of control | dose: 600.0 mg/kg/injection, schedule: Q04DX003 (ip) 120 % of control | dose: 600.0 mg/kg/injection, schedule: Q08DX002 (ip) 105 % of control | dose: 750.0 mg/kg/injection, schedule: Q01DX009 (oral) 100 % of control | dose: 750.0 mg/kg/injection, schedule: Q01DX009 (sc) 111 % of control | dose: 750.0 mg/kg/injection, schedule: Q01DX015 (im) 113 % of control | dose: 750.0 mg/kg/injection, schedule: Q01DX015 (ip) 113 % of control | dose: 750.0 mg/kg/injection, schedule: Q03HX024 (ip) 96 % of control | dose: 800.0 mg/kg/injection, schedule: Q01DX005 (ip) 107 % of control | dose: 800.0 mg/kg/injection, schedule: Q01DX Z (ip) 114 % of control | dose: 800.0 mg/kg/injection, schedule: Q03DX005 (ip) 107 % of control | dose: 800.0 mg/kg/injection, schedule: Q08DX002 (ip) 111 % of control | dose: 900.0 mg/kg/injection, schedule: Q01DX001 (ip) 105 % of control | dose: 1000.0 mg/kg/injection, schedule: Q01DX001 (ip) 106 % of control | dose: 1000.0 mg/kg/injection, schedule: Q01DX009 (oral) 102 % of control and 105 % of control | dose: 1000.0 mg/kg/injection, schedule: Q01DX015 (oral) 109 % of control | dose: 1000.0 mg/kg/injection, schedule: Q03HX024 (ip) 95 % of control | dose: 1100.0 mg/kg/injection, schedule: Q03DX005 (ip) 108 % of control | dose: 1500.0 mg/kg/injection, schedule: Q03HX024 (ip) 113 % of control
